Assay results reported in the supplement of paper PMC10307832.

Legend:
Experiment in all cases: relative viability (nuclei count vs DMSO), 5 days (fraction); higher = more cells survive
Mirin + Phenformin = compound: N=C1NC(=O)/C(=C/c2ccc(O)cc2)S1 [Mirin] + N=C(N)NC(=N)NCCc1ccccc1 [Phenformin] (partner 250 µM)
In short: (§1)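 The day after seeding in 1536-well plates, lung cancer cell lines were treated by pin tool with a single drug, or with a fixed anchor-drug dose together with five library-drug doses (not always all listed) in √10 steps. After 5 days, a combined fix-and-stain solution (final 0.05% Triton X-100, 1% formaldehyde, 1 ug/ml Hoechst) was added. Nuclei counted on 4× images gave relative viability as treated counts over vehicle counts, reported as the median of duplicate plates.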

Mirin + Lapatinib = compound: N=C1NC(=O)/C(=C/c2ccc(O)cc2)S1 [Mirin] + CS(=O)(=O)CCNCc1ccc(-c2ccc3ncnc(Nc4ccc(OCc5cccc(F)c5)c(Cl)c4)c3c2)o1 [Lapatinib] (partner 2 µM)
In short: as §1

[1] = compound: CCn1c(-c2nonc2N)nc2cnc(Oc3cccc(NC(=O)c4ccc(OCCN5CCOCC5)cc4)c3)cc21 + Cc1nc(Nc2ncc(C(=O)Nc3c(C)cccc3Cl)s2)cc(N2CCN(CCO)CC2)n1 [Dasatinib] (partner 0.075 µM)
In short: as §1

[2] = compound: CCC1=CN=CN=C1N2CCN(CC2)CC3=NC4=C(N3)C=C(C=C4)C(F)(F)F + Cc1nc(Nc2ncc(C(=O)Nc3c(C)cccc3Cl)s2)cc(N2CCN(CCO)CC2)n1 [Dasatinib] (partner 0.075 µM)
In short: as §1

| Cell Line | relative viability (Mirin + Phenformin; first compound 0.25 µM) | relative viability (Mirin + Phenformin; first compound 0.7906 µM) | relative viability (Mirin + Phenformin; first compound 2.5 µM) | relative viability (Mirin + Phenformin; first compound 7.906 µM) | relative viability (Mirin + Phenformin; first compound 25 µM) | relative viability (Mirin + Lapatinib; first compound 0.25 µM) | relative viability (Mirin + Lapatinib; first compound 0.7906 µM) | relative viability (Mirin + Lapatinib; first compound 2.5 µM) | relative viability (Mirin + Lapatinib; first compound 7.906 µM) | relative viability (Mirin + Lapatinib; first compound 25 µM) | relative viability ([1]; first compound 0.04 µM) | relative viability ([1]; first compound 0.1265 µM) | relative viability ([1]; first compound 0.4 µM) | relative viability ([1]; first compound 1.265 µM) | relative viability ([1]; first compound 4 µM) | relative viability ([2]; first compound 0.04 µM) | relative viability ([2]; first compound 0.1265 µM) | relative viability ([2]; first compound 0.4 µM) | relative viability ([2]; first compound 1.265 µM) | relative viability ([2]; first compound 4 µM) |
| --- | --- | --- | --- | --- | --- | --- | --- | --- | --- | --- | --- | --- | --- | --- | --- | --- | --- | --- | --- | --- |
| SW 1573 | 0.384 | 0.413 | 0.378 | 0.385 | 0.262 | 1.13 | 1.16 | 1.09 | 0.952 | 0.908 | 0.597 | 0.319 | 0.21 | 0.246 | 0.166 | 0.382 | 0.453 | 0.5 | 0.494 | 0.452 |
| A-427 | 0.311 |  | 0.363 | 0.266 | 0.348 | 1.12 |  | 1.17 | 1.05 | 1.08 | 0.694 | 0.487 | 0.375 | 0.269 | 0.224 | 0.563 | 0.753 | 0.659 | 0.614 | 0.655 |
| ABC-1 | 0.263 | 0.21 | 0.269 | 0.257 | 0.206 | 1.04 | 1.33 | 1.17 | 1.16 | 0.95 | 0.54 | 0.51 | 0.414 | 0.311 | 0.372 | 0.66 | 0.507 | 0.614 | 0.495 | 0.449 |
| LK-2 | 0.408 |  | 0.363 | 0.203 | 0.167 | 0.787 |  | 0.879 | 0.593 | 0.496 | 0.39 | 0.493 | 0.208 | 0.178 | 0.252 | 0.325 | 0.314 | 0.257 | 0.258 | 0.318 |
| NCI-H2023 | 0.419 | 0.461 | 0.442 | 0.426 | 0.418 | 1.08 | 0.301 | 0.752 | 0.876 | 0.585 | 0.519 | 0.424 | 0.257 | 0.294 | 0.232 | 0.641 | 0.546 | 0.529 | 0.488 | 0.582 |
| NCI-H647 | 0.613 | 0.455 | 0.521 | 0.542 | 0.36 | 1.31 | 1.09 | 1.07 | 1.1 | 0.427 | 0.145 | 0.0946 | 0.0784 | 0.122 | 0.0956 | 0.166 | 0.174 | 0.186 | 0.223 | 0.201 |
| SK-MES-1 | 0.678 | 0.852 | 0.693 | 0.746 | 0.771 | 0.461 | 0.469 | 0.544 | 0.53 | 0.624 | 0.429 | 0.256 | 0.224 | 0.244 | 0.172 | 0.342 | 0.376 | 0.416 | 0.319 | 0.493 |
| NCI-H1793 | 0.447 |  | 0.362 | 0.287 | 0.374 | 0.899 | 0.413 | 0.914 | 0.881 | 0.652 | 0.385 | 0.284 | 0.208 | 0.183 | 0.194 | 0.392 | 0.382 | 0.32 |  | 0.307 |
